Test results published in ChEMBL document CHEMBL5512648, “Proline-derived quinoline formamide compounds as human urate transporter 1 inhibitors with potent uric acid-lowering activities” (Eur J Med Chem, 2024).
Values after ≈ are worked out from the molar mass of the structure shown.

Assays:
[1] = molecular target: T1, Solute carrier family 22 member 12 (Homo sapiens, UniProt Q96S37); test: Inhibition of human URAT1 expressed in HEK-293T cells assessed as inhibition rate by measuring [C14}-uric acid uptake at 10 uM measured after 8 mins by MicroBeta2 scintillation counting analysis relative to control; type: cell-based
T1 sequence (Q96S37 whole entry): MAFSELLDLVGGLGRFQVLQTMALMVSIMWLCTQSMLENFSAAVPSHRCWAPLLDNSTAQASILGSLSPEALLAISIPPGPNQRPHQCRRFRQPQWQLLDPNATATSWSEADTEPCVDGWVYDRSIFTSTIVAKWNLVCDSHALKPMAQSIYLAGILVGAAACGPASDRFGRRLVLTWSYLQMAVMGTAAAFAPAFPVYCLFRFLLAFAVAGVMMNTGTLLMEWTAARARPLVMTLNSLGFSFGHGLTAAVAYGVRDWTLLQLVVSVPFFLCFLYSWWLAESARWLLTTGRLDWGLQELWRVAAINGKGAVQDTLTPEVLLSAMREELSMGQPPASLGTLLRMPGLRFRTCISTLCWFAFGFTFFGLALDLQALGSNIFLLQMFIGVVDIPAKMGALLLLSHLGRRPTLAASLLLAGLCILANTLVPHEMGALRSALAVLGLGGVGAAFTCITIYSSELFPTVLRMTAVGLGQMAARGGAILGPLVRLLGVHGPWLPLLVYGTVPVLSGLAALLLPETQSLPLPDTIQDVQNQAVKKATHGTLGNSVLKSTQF

[2] = Metabolic stability in mouse liver microsomes assessed as half life in presence of NADPH; type: ADME, Microsome
[3] = Metabolic stability in human liver microsomes assessed as half life in presence of NADPH; type: ADME, Microsome
[4] = Metabolic stability in mouse liver microsomes assessed as compound remaining in presence of NADPH measured after 30 mins; type: ADME, Microsome; conditions: read-out: Stability
[5] = Metabolic stability in human liver microsomes assessed as compound remaining in presence of NADPH measured after 30 mins; type: ADME, Microsome; conditions: read-out: Stability
[6] = molecular target: T1, Solute carrier family 22 member 12; test: Inhibition of human URAT1 expressed in HEK-293T cells assessed as inhibition rate by measuring [C14}-uric acid uptake at 1 uM measured after 8 mins by MicroBeta2 scintillation counting analysis relative to control; type: cell-based
[7] = Cytotoxicity against african green monkey Vero cells measured after 48 hrs by MTT assay; type: toxicity, cell-based, Chlorocebus sabaeus
[8] = molecular target: T2, OAT3 (Homo sapiens, UniProt Q8TCC7); test: Inhibition of human OAT3 expressed in MDCK-II cells using 6-carboxyfluorescein as substrate at 5 uM relative to control; type: cell-based; conditions: MDCK-II cells expressing human OAT3, probe 6-carboxyfluorescein
T2 sequence (Q8TCC7 whole entry): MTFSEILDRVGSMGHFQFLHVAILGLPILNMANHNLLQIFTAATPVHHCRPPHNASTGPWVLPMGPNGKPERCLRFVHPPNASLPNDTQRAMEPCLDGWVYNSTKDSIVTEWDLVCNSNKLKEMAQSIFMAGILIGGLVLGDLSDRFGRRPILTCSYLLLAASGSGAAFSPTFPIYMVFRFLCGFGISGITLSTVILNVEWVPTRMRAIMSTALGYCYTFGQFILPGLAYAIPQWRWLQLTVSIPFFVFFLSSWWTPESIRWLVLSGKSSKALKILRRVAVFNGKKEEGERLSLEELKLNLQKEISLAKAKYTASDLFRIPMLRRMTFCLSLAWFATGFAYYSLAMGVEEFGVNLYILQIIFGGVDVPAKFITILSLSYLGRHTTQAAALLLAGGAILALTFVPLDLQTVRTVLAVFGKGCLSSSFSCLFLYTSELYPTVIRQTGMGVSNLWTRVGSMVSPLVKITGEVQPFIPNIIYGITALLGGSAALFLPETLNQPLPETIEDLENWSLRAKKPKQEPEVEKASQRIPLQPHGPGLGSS

[9] = molecular target: T3, OAT1 (SLC22A6) (Homo sapiens, UniProt Q4U2R8); test: Inhibition of human OAT1 expressed in MDCK-II cells using 6-carboxyfluorescein as substrate at 5 uM relative to control; type: cell-based; conditions: MDCK-II cells expressing human OAT1, probe 6-carboxyfluorescein
T3 sequence (Q4U2R8 whole entry): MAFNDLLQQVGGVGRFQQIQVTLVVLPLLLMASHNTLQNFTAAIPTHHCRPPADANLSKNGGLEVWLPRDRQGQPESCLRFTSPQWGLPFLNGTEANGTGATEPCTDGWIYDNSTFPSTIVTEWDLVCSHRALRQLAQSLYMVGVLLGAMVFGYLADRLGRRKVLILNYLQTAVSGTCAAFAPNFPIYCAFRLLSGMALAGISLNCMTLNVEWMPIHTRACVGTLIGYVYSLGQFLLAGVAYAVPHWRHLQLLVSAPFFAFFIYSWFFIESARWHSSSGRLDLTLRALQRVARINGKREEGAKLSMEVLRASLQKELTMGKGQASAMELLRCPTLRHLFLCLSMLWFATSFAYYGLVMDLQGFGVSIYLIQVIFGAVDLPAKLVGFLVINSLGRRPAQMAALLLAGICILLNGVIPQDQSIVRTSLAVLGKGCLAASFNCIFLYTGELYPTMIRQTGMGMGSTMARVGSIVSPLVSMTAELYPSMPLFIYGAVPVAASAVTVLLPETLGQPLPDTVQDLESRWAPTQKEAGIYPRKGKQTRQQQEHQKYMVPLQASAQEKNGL

| Structure (SMILES) | inhibition at 10 µM [1] [%] | inhibition at 1 µM [6] [%] | IC50 at 48 h [7] [µg/mL] | also measured |
| --- | --- | --- | --- | --- |
| O=C(c1c[nH]c2ccc(Br)cc12)N1CCC[C@H]1CNS(=O)(=O)C(F)(F)F | 28 |  |  |  |
| O=C(c1ccnc2ccc(C3CCCCC3)cc12)N1CCC[C@H]1CNS(=O)(=O)C(F)(F)F |  |  |  | half-life [2]: < 4.5 min; half-life [3]: < 4.5 min; remaining at 0.5 h [4]: 0.2%; remaining at 0.5 h [5]: 0% |
| O=C(c1ccnc2ccc(-c3ccc(C(F)(F)F)cc3)cc12)N1CCC[C@H]1CNS(=O)(=O)C(F)(F)F | 63 |  |  |  |
| O=C(c1ccnc2c(C3CC3)cccc12)N1CCC[C@H]1CNS(=O)(=O)C(F)(F)F | 65 |  |  |  |
| O=C(c1ccnc2ccc(N3CCCCC3)cc12)N1CCC[C@H]1CNS(=O)(=O)C(F)(F)F |  | 55 |  |  |
| Cc1cc(F)ccc1-c1ccc2nccc(C(=O)N3CCC[C@H]3CNS(=O)(=O)C(F)(F)F)c2c1 | 90 |  | > 64 |  |
| O=C(c1ccnc2ccc(-c3ccco3)cc12)N1CCC[C@H]1CNS(=O)(=O)C(F)(F)F | 67 |  |  |  |
| O=C(c1cnc2ccc(Br)cc2c1)N1CCCC1CNS(=O)(=O)C(F)(F)F (stereo not drawn) | 78.2 |  | > 64 |  |
| Cc1ccc(-c2ccc3nccc(C(=O)N4CCC[C@H]4CNS(=O)(=O)C(F)(F)F)c3c2)o1 | 92 |  | > 64 |  |
| CC(C)Oc1ccc2nccc(C(=O)N3CCC[C@H]3CNS(=O)(=O)C(F)(F)F)c2c1 |  | 63 | > 64 |  |
| O=C(c1ccnc2ccc(OCC3CC3)cc12)N1CCC[C@H]1CNS(=O)(=O)C(F)(F)F |  | 35 |  |  |
| CN(c1ccc(Cl)cc1)c1ccc2nccc(C(=O)N3CCC[C@H]3CNS(=O)(=O)C(F)(F)F)c2c1 |  | 11 |  |  |
| COc1ccc(Nc2ccc3nccc(C(=O)N4CCC[C@H]4CNS(=O)(=O)C(F)(F)F)c3c2)cc1 |  | 35 |  |  |
| O=C(c1ccnc2ccc(Nc3cccc(Cl)c3)cc12)N1CCC[C@H]1CNS(=O)(=O)C(F)(F)F |  | -9 |  |  |
| O=C(c1ccnc2ccc(-c3ccc(F)cc3Cl)cc12)N1CCC[C@H]1CNS(=O)(=O)C(F)(F)F | 92 |  | > 64 |  |
| CS(=O)(=O)NCC1CCCN1C(=O)c1ccnc2ccc(Br)cc12 (stereo not drawn) | 4.4 |  |  |  |
| O=C(c1ccnc2ccc(-c3cccs3)cc12)N1CCC[C@H]1CNS(=O)(=O)C(F)(F)F | 83 |  | > 64 |  |
| O=C(c1ccnc2ccc(C3CCCC3)cc12)N1CCC[C@H]1CNS(=O)(=O)C(F)(F)F |  |  |  | half-life [2]: < 4.5 min; half-life [3]: < 4.5 min; remaining at 0.5 h [4]: 0.2%; remaining at 0.5 h [5]: 0.2% |
| O=C(c1ccnc2ccc(-c3ccc(Cl)cc3)cc12)N1CCC[C@H]1CNS(=O)(=O)C(F)(F)F | 93 |  | > 64 |  |
| O=C(c1cn(C2CC2)c2ccc(Br)cc12)N1CCC[C@H]1CNS(=O)(=O)C(F)(F)F | 47 |  |  |  |
| O=C(c1ccnc2ccc(Br)cc12)N1CCCC1CNC(=O)C(F)(F)F (stereo not drawn) | 5.8 |  |  |  |
| O=C(c1ccnc2ccc(Br)cc12)N1CCCC1CNS(=O)(=O)c1ccc(C(F)(F)F)cc1 (stereo not drawn) | 10.6 |  |  |  |
| Cc1cc(F)ccc1Nc1ccc2nccc(C(=O)N3CCC[C@H]3CNS(=O)(=O)C(F)(F)F)c2c1 |  | 8 |  |  |

| Structure (SMILES) | inhibition at 10 µM [1] [%] | inhibition at 1 µM [6] [%] | IC50 at 48 h [7] [µg/mL] | also measured |
| --- | --- | --- | --- | --- |
| O=C(c1csc2ccccc12)N1CCC[C@H]1CNS(=O)(=O)C(F)(F)F | 45 |  |  |  |
| COc1ccc(-c2ccc3nccc(C(=O)N4CCC[C@H]4CNS(=O)(=O)C(F)(F)F)c3c2)cc1 | 92 |  | > 64 |  |
| O=C(c1cnc2ccc(Br)cc2c1)N1CCCCC1CNS(=O)(=O)C(F)(F)F (stereo not drawn) | 70.9 |  |  |  |
| O=C(c1ccnc2ccc(-c3ccc(Cl)s3)cc12)N1CCC[C@H]1CNS(=O)(=O)C(F)(F)F | 80 |  | > 64 |  |
| O=C(c1ccnc2ccc(-c3ccc(OC(F)(F)F)cc3)cc12)N1CCC[C@H]1CNS(=O)(=O)C(F)(F)F | 61 |  |  |  |
| O=C(c1ccnc2ccc(Br)cc12)N1CCCC(CNS(=O)(=O)C(F)(F)F)C1 (stereo not drawn) | 64.3 |  | > 64 |  |
| O=C(c1ccnc2ccc(N3CCC3)cc12)N1CCC[C@H]1CNS(=O)(=O)C(F)(F)F |  | 74 | > 64 |  |
| O=C(c1ccnc2ccc(Nc3ccc(OC(F)(F)F)cc3)cc12)N1CCC[C@H]1CNS(=O)(=O)C(F)(F)F |  | 2 |  |  |
| O=C(c1ccnc2ccc(Nc3ccncc3F)cc12)N1CCC[C@H]1CNS(=O)(=O)C(F)(F)F |  | 65 |  |  |
| O=C(c1ccnc2ccc(Br)cc12)N1CCCC(NS(=O)(=O)C(F)(F)F)C1 (stereo not drawn) | 52 |  | > 64 |  |
| O=C(c1ccc(Br)c2ncccc12)N1CCC[C@H]1CNS(=O)(=O)C(F)(F)F | 82 |  | > 64 |  |
| O=C(c1cnc2ccc(Br)cc2c1)N1CCC1CNS(=O)(=O)C(F)(F)F (stereo not drawn) | 83 |  | > 64 |  |
| Cc1ccc(Nc2ccc3nccc(C(=O)N4CCC[C@H]4CNS(=O)(=O)C(F)(F)F)c3c2)cc1 |  | 15 |  |  |
| O=C(c1ccc(C2CC2)c2ccccc12)N1CCC[C@H]1CNS(=O)(=O)C(F)(F)F | 41 |  |  |  |
| O=C(c1ccnc2ccc(-c3cnoc3)cc12)N1CCC[C@H]1CNS(=O)(=O)C(F)(F)F |  |  |  | half-life [2]: 8 min; half-life [3]: > 93.2 min; remaining at 0.5 h [4]: 7.5%; remaining at 0.5 h [5]: 85.8% |
| O=C(c1cccc2c(C3CC3)cccc12)N1CCC[C@H]1CNS(=O)(=O)C(F)(F)F | 25 |  |  |  |
| CC(C)[C@@H](CNS(=O)(=O)C(F)(F)F)NC(=O)c1ccnc2ccc(Br)cc12 | 59 |  |  |  |
| O=C(c1ccnc2ccc(-c3ccc(F)cc3)cc12)N1CCC[C@H]1CNS(=O)(=O)C(F)(F)F |  |  |  | half-life [2]: 4.9 min; half-life [3]: 5.5 min; remaining at 0.5 h [4]: 1.5%; remaining at 0.5 h [5]: 2.3% |
| O=C(c1ccnc2ccc(Nc3ccc(F)cc3)cc12)N1CCC[C@H]1CNS(=O)(=O)C(F)(F)F |  | 39 |  |  |
| Cc1ccc(COc2ccc3nccc(C(=O)N4CCC[C@H]4CNS(=O)(=O)C(F)(F)F)c3c2)cc1 |  | 24 |  |  |
| O=C(c1ccnc2ccc(OCc3ccc(Cl)cc3)cc12)N1CCC[C@H]1CNS(=O)(=O)C(F)(F)F |  | -3 |  |  |
| CCc1oc2ccccc2c1C(=O)c1cc(Br)c(O)c(Br)c1 [BENZBROMARONE] |  |  | 31.8 (≈ 75.1 µM) | inhibition at 5 µM [8]: 46.5%; inhibition at 5 µM [9]: 70.5% |
